Measured values published in ChEMBL document CHEMBL1141157, “A combination of docking, QM/MM methods, and MD simulation for binding affinity estimation of metalloprotein ligands” (J Med Chem, 2005).

The molecules below were run against T1, Matrix metalloproteinase-9 (Homo sapiens, UniProt P14780) (assay: Inhibition of MOCAc-Pro-Leu-Gly-Leu-A2p (Dnp)-Ala-Arg-NH2 binding to human matrix metalloprotease-9 (MMP-9)). Settings: read-out: Log 1/Ki (converted).
T1 sequence (P14780 whole entry): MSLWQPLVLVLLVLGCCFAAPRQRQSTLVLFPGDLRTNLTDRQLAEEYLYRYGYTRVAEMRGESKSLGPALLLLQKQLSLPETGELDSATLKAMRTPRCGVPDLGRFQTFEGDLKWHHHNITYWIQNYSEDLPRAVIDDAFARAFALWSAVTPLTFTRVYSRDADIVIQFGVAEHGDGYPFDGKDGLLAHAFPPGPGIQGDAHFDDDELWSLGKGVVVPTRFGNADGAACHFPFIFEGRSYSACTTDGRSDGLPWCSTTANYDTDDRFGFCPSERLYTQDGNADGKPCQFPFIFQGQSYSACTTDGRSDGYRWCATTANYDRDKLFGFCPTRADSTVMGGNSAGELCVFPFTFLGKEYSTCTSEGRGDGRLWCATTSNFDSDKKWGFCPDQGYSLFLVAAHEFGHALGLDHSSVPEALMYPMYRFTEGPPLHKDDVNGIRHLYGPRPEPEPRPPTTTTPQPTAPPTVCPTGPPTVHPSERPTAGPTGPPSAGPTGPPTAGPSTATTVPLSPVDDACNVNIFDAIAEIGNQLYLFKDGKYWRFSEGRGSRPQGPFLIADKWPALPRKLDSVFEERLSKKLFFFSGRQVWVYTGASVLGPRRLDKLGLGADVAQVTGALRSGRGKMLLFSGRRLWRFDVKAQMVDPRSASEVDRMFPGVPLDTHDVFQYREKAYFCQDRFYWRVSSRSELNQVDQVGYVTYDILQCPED
`CCOP(=O)(c1ccc(OC)cc1)N1CCC[C@@H]1C(=O)NO` (stereo partly drawn) gave a Ki of 316 nM.
`CCOP(=O)(c1ccc(Oc2ccc(N)cc2)cc1)N1Cc2ccccc2C[C@@H]1C(=O)NO` (stereo partly drawn) was tested, and the Ki was 0.1 nM.
`COc1ccc(P(=O)(OC)N2Cc3ccccc3C[C@@H]2C(=O)NO)cc1` (stereo partly drawn) showed a Ki of 2.03 nM.
Molecule `CCOP(=O)(c1ccc(OC)cc1)N1Cc2ccsc2C[C@@H]1C(=O)NO` (stereo partly drawn) has a Ki of 3.8 nM.
Molecule `CCOP(=O)(c1ccccc1)N1Cc2ccccc2C[C@@H]1C(=O)NO` (stereo partly drawn) has a Ki of 42.7 nM.
With `CCOP(=O)(c1ccc(N)cc1)N1Cc2ccccc2C[C@@H]1C(=O)NO` (stereo partly drawn) the Ki was 95.5 nM.
With `CCN(CC)CCOP(=O)(c1ccc(OC)cc1)N1Cc2ccccc2C[C@@H]1C(=O)NO` (stereo partly drawn) the Ki was 16.7 nM.
`CCOP(=O)(c1ccc(Oc2ccccc2)cc1)N1Cc2ccccc2C[C@@H]1C(=O)NO` (stereo partly drawn) was tested, and the Ki was 0.0794 nM.
In the case of `CCOP(=O)(c1ccc(OC)cc1)N1CC2Nc3ccccc3C2C[C@@H]1C(=O)NO` (stereo partly drawn), the Ki is reported as 1.13 nM.
Work on `CCOP(=O)(c1ccncc1)N1Cc2ccccc2C[C@@H]1C(=O)NO` (stereo partly drawn) yielded a Ki of 278 nM.
`CCOP(=O)(c1ccc(OC)cc1)N1Cc2ccccc2C[C@@H]1C(=O)NO` (stereo partly drawn) gave a Ki of 5.05 nM.
`CCOP(=O)(c1ccc(F)cc1)N1Cc2ccccc2C[C@@H]1C(=O)NO` (stereo partly drawn) gave a Ki of 51.9 nM.
`CCOCCOP(=O)(c1ccc(OC)cc1)N1Cc2ccccc2C[C@@H]1C(=O)NO` (stereo partly drawn) was tested, and the Ki was 6.35 nM.
`CCOP(=O)(c1ccc(-c2ccccc2)cc1)N1Cc2ccccc2C[C@@H]1C(=O)NO` (stereo partly drawn) gave a Ki of 0.31 nM.
For `CCOP(=O)(c1ccc(C)cc1)N1Cc2ccccc2C[C@@H]1C(=O)NO` (stereo partly drawn), the Ki was 41.8 nM.
`CCOP(=O)(c1cccc(F)c1)N1Cc2ccccc2C[C@@H]1C(=O)NO` (stereo partly drawn) showed a Ki of 80.2 nM.
`COc1ccc(P(=O)(OCCc2ccccn2)N2Cc3ccccc3C[C@@H]2C(=O)NO)cc1` (stereo partly drawn) showed a Ki of 3.42 nM.
`CCOP(=O)(c1ccc(OC)cc1)N1CCN(C(=O)OCc2ccccc2)C[C@@H]1C(=O)NO` (stereo partly drawn) showed a Ki of 5.2 nM.
For `CCOP(=O)(CCc1ccccc1)N1Cc2ccccc2C[C@@H]1C(=O)NO` (stereo partly drawn), the Ki was 38.3 nM.
For `CCOP(=O)(c1cccs1)N1Cc2ccccc2C[C@@H]1C(=O)NO` (stereo partly drawn), the Ki was 59.2 nM.
With `CCOP(=O)(c1ccc(OC)cc1)N1Cc2ccccc2C[C@H]1C(=O)NO` (stereo partly drawn) the Ki was 349 nM.
With `CCOCCOc1ccc(P(=O)(OCC)N2Cc3ccccc3C[C@@H]2C(=O)NO)cc1` (stereo partly drawn) the Ki was 14.2 nM.
`COc1ccc(P(=O)(OC2CCCCC2)N2Cc3ccccc3C[C@@H]2C(=O)NO)cc1` (stereo partly drawn) showed a Ki of 6.58 nM.
Work on `CCOP(=O)(c1ccc(Oc2ccncc2)cc1)N1Cc2ccccc2C[C@@H]1C(=O)NO` (stereo partly drawn) yielded a Ki of 0.6 nM.
`CCOP(=O)(c1ccccc1F)N1Cc2ccccc2C[C@@H]1C(=O)NO` (stereo partly drawn) gave a Ki of 32.1 nM.
`CCOP(=O)(c1ccc(OC)cc1)N1Cc2cc(N)ccc2C[C@@H]1C(=O)NO` (stereo partly drawn) gave a Ki of 11 nM.
`COc1ccc(P(=O)(OCC2CCCCC2)N2Cc3ccccc3C[C@@H]2C(=O)NO)cc1` (stereo partly drawn) was tested, and the Ki was 4.56 nM.
Molecule `COc1ccc(P(=O)(OCCc2ccc(-c3ccccc3)cc2)N2Cc3ccccc3C[C@@H]2C(=O)NO)cc1` (stereo partly drawn) has a Ki of 6.47 nM.

What follows are molecules tested against T1, Matrix metalloproteinase-9 (assay: Inhibition constant for human matrix metalloprotease-9 (MMP-9)). Settings: not given.
In the case of `CCOP(=O)(c1ccccc1)N1Cc2ccccc2C[C@@H]1C(=O)NO` (stereo partly drawn), the Ki is reported as 42.7 nM.
With `CCOP(=O)(c1ccc(OC)cc1)N1Cc2ccccc2C[C@@H]1C(=O)NO` (stereo partly drawn) the Ki was 5.05 nM.
For `CCOP(=O)(c1ccc(F)cc1)N1Cc2ccccc2C[C@@H]1C(=O)NO` (stereo partly drawn), the Ki was 51.9 nM.
`CCOP(=O)(c1ccc(C)cc1)N1Cc2ccccc2C[C@@H]1C(=O)NO` (stereo partly drawn) was tested, and the Ki was 41.8 nM.
With `CCOP(=O)(c1ccc(OC)cc1)N1Cc2ccccc2C[C@H]1C(=O)NO` (stereo partly drawn) the Ki was 349 nM.
